Laboratory results from PMC11089506 (Journal of Medicinal Chemistry, 2024).
Entries after “also recorded” stand apart in the source; their conditions may differ. Counter-ions that a name gives are not always drawn. Like-named read-outs stand apart in the source and are kept apart here.

What was measured:
Ca2+ Channel N-Type = Ca2+ Channel N-Type (Rattus norvegicus, UniProt Q02294); test: biochemical; type: binding
M3 (muscarinic receptor) = molecular target: T1, M3 (muscarinic receptor) (Homo sapiens, UniProt P20309); test: radioligand competition binding, [3H]4-DAMP
T1 construct: Eurofins

5-HT3 = molecular target: T2, 5-HT3 (Homo sapiens, UniProt P46098); test: radioligand competition binding, [3H]BRL 43694; conditions: read-out: % inhibition of the specific radioligand binding
T2 construct: Eurofins

Opioid receptor μ = molecular target: T3, Opioid receptor μ (Homo sapiens, UniProt P35372); test: radioligand competition binding, [3H]Diprenorphine (second line)
T3 construct: Eurofins

[1] = molecular target: T4, Nicotinic acetylcholine receptor (muscle-type) (Homo sapiens, UniProt P02708+P07510+Q07001); test: radioligand competition binding, [125I]α-Bungarotoxin
T4 construct: Eurofins

[2] = test system: various other targets (Table S4); test: broad screen, radioligand binding competition assays (Eurofins), summary; conditions: high nanomolar or micromolar ranges
human 5-HT2CR [3] = molecular target: T5, human 5-HT2CR (Homo sapiens, UniProt P28335); test: Ca2+/Fluo-4 assay, agonist mode, stable 5-HT2CR-HEK293 cells
Tachykinin receptor NK2 = molecular target: T6, Tachykinin receptor NK2 (Homo sapiens, UniProt P21452); test: radioligand competition binding, [125I]Neurokinin A
T6 construct: Eurofins (contract laboratory)

GABAB(1a,2) receptor = molecular target: T7, GABAB(1a,2) receptor (Homo sapiens, UniProt Q9UBS5); test: radioligand competition binding, [3H]CGP-54626
T7 construct: Eurofins

NMDA receptor (PCP) = test: radioligand competition binding, [3H]TCP; set-up: species or system rat
human 5-HT2CR [4] = molecular target: T5, human 5-HT2CR; test: Ca2+/Fluo-4 assay, antagonist mode (5-HT EC90 as agonist), stable 5-HT2CR-HEK293 cells; conditions: 5-HT2CR pIC50 ± S.E.M., Table S2
Androgen receptor (NHR) = Androgen receptor (NHR) (Homo sapiens, UniProt P10275); test: biochemical; conditions: read-out: % inhibition of the specific radioligand binding
Adenosine receptor A1 = molecular target: T8, Adenosine receptor A1 (Homo sapiens, UniProt P30542); test: radioligand competition binding, [3H]DPCPX
T8 construct: Eurofins

[5] = molecular target: T9, Nicotinic acetylcholine receptor α3β4 (Homo sapiens, UniProt P30926+P32297); test: radioligand competition binding, [125I]Epibatidine
T9 construct: Eurofins

GABA transporter = GABA transporter (Rattus norvegicus, UniProt P23978); test: biochemical; conditions: read-out: % inhibition of the specific radioligand binding
Tachykinin receptor NK1 = molecular target: T10, Tachykinin receptor NK1 (Homo sapiens, UniProt P25103); test: radioligand competition binding, [3H]Substance P
T10 construct: Eurofins (contract laboratory)

Phosphodiesterase = test: radioligand competition binding, [3H]Rolipram; set-up: species or system rat
[6] = molecular target: T11, Neuropeptide Y receptor Y1 (Homo sapiens, UniProt P25929); test: radioligand competition binding, [125I]Peptide YY
T11 construct: Eurofins

human 5-HT2BR [7] = molecular target: T12, human 5-HT2BR (Homo sapiens, UniProt P41595); test: Calcium No Wash PLUS assay, 5-HT2BR-HEK293 cells (Eurofins); type: cell-based; conditions: fluorescence-based Ca2+ imaging assay
T12 construct: host or cells: HEK293 (membrane homogenates)

[8] = molecular target: T13, α2A (adrenergic receptor) (Homo sapiens, UniProt P08913); test: radioligand competition binding, [3H]RX 821002
T13 construct: Eurofins
T13 sequence (P08913 1-465): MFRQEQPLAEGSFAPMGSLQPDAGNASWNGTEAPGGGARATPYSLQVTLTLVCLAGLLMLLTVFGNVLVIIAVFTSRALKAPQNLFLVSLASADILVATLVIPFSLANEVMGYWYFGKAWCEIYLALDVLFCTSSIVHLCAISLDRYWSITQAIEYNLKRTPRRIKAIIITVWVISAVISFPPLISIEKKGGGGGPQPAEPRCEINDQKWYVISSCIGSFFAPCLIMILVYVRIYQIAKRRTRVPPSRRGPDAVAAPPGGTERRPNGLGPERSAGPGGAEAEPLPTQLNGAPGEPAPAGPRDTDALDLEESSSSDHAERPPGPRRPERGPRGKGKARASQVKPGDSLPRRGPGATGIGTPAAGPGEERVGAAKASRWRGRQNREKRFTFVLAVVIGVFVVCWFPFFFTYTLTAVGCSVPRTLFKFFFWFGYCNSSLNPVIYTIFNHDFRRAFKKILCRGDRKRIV

human 5-HT2CR [9] = molecular target: T5, human 5-HT2CR; test: [125I]DOI competition binding assay
Method: (§1) Following incubation, the samples were filtered rapidly under vacuum through glass fiber filters (GF/B, Packard) presoaked with 0.3% polyethylenimine and rinsed several times with ice cold wash buffer (50 mM Tris-HCl, pH 7.4) using a 96-sample cell harvester (Unifilter, Packard). The filters were dried and then counted for radioactivity in a scintillation counter (Topcounter, Packard) using a scintillation cocktail (Microscint-0, Packard).

human 5-HT2BR [10] = molecular target: T12, human 5-HT2BR; test: [125I]DOI competition binding assay
Method: as §1

[11] = molecular target: T14, D5 (dopaminergic receptor) (Homo sapiens, UniProt P21918); test: radioligand competition binding, [3H]SCH 23390; conditions: read-out: % inhibition of the specific radioligand binding
T14 construct: Eurofins

[12] = molecular target: T15, Neuropeptide Y receptor Y2 (Homo sapiens, UniProt P49146); test: radioligand competition binding, [125I]Peptide YY
T15 construct: Eurofins

5-HT5a = molecular target: T16, 5-HT5a (Homo sapiens, UniProt P47898); test: radioligand competition binding, [3H]LSD; conditions: read-out: % inhibition of the specific radioligand binding
T16 construct: Eurofins

Adenosine receptor A2A = molecular target: T17, Adenosine receptor A2A (Homo sapiens, UniProt P29274); test: radioligand competition binding, [3H]CGS-21680
T17 construct: Eurofins

NET = molecular target: T18, NET (Homo sapiens, UniProt P23975); test: radioligand competition binding, [3H]nisoxetine
T18 construct: Eurofins

[13] = read-out: % inhibition of the specific radioligand binding
[14] = estimated from the % inhibition data

SMILES: COc1cc(C(F)(F)F)c(OC)cc1[C@@H]1CCCNC1 [(S)-11, 3-(2,5-Dimethoxy-4-(trifluoromethyl)phenyl)piperidine Hydrochloride]
- IC50 (Ca2+ Channel N-Type): > 10 µM
- inhibition at 10 µM (Ca2+ Channel N-Type; [13]): -5%
- IC50 (M3 (muscarinic receptor); [14]): ~1 µM
- inhibition at 1 µM (M3 (muscarinic receptor); [13]): 41%
- inhibition at 10 µM (M3 (muscarinic receptor); [13]): 90%
- inhibition at 10 µM (5-HT3): 6%
- IC50 (Opioid receptor μ; [14]): > 10 µM
- inhibition at 10 µM (Opioid receptor μ; [13]): 18%
- IC50 [1]: > 10 µM
- inhibition at 10 µM [1, 13]: 3%
- binding affinities at the respective targets of the broad screen [2]: > 100 nM
- agonist activity at 5-HT2CR (in words) (human 5-HT2CR [3]): negligible agonist efficacy; also recorded: absence of measurable agonist efficacy
- EC50 (human 5-HT2CR [3]; 5-HT2CR EC50 (nM), Table 1, at least 3 independent experiments): > 50000 nM
- agonist activity at 5-HT2CR (in words) (human 5-HT2CR [3]; listed as 11eu): did not elicit measurable agonist activity
- IC50 (Tachykinin receptor NK2; [14]): > 10 µM
- inhibition at 10 µM (Tachykinin receptor NK2; [13]): 1%
- IC50 (GABAB(1a,2) receptor; [14]): > 10 µM
- inhibition at 10 µM (GABAB(1a,2) receptor; [13]): 6%
- % inhibition of the specific radioligand binding (NMDA receptor (PCP); (S)-11 10 μM, n=1): 4%
- IC50 (NMDA receptor (PCP); [14]): > 10 µM
- IC50 (human 5-HT2CR [4]): 0.316 µM
- inhibition at 10 µM (Androgen receptor (NHR)): 1%
- IC50 (Adenosine receptor A1; [14]): > 10 µM
- inhibition at 10 µM (Adenosine receptor A1; [13]): 4%
- IC50 [5]: ~10 µM
- inhibition at 10 µM [5, 13]: 51%
- inhibition at 10 µM (GABA transporter): 29%
- IC50 (Tachykinin receptor NK1; [14]): > 10 µM
- inhibition at 10 µM (Tachykinin receptor NK1; [13]): 31%
- % inhibition of the specific radioligand binding (Phosphodiesterase; (S)-11 10 μM, n=1): 8%
- IC50 (Phosphodiesterase; [14]): > 10 µM
- IC50 [6, 14]: > 10 µM
- inhibition at 10 µM [6, 13]: -4%
- EC50 (human 5-HT2BR [7]): 0.19 µM
- IC50 [8, 14]: > 10 µM
- inhibition at 1 µM [8, 13]: 1%
- inhibition at 10 µM [8, 13]: 34%
- 5-HT2CR pKi ± S.E.M. (human 5-HT2CR [9]; Table S3): 7.89 ± 0.10
- Ki (human 5-HT2CR [9]; read-out: Ki at 5-HT2CR): 0.013 µM
- 5-HT2BR pKi ± S.E.M. (human 5-HT2BR [10]; Table S3): 7.88 ± 0.07
- Ki (human 5-HT2BR [10]; read-out: Ki at 5-HT2BR): 0.013 µM
- inhibition at 10 µM [11]: 26%
- IC50 [12, 14]: > 10 µM
- inhibition at 10 µM [12, 13]: 3%
- inhibition at 10 µM (5-HT5a): 4%
- IC50 (Adenosine receptor A2A; [14]): > 10 µM
- inhibition at 10 µM (Adenosine receptor A2A; [13]): -19%
- IC50 (NET; [14]): > 10 µM
- inhibition at 10 µM (NET; [13]): -4%
